Measurements taken from patent publication US20090306159A1, “Inhibition of Intermediate-Conductance Calcium Activated Potassium Channels in the Treatment and/or Prevention of Atherosclerosis” (The Regents of the University, priority 2005, published 2009).

Columns and labels:
[1] = system: human coronary artery smooth muscle cells (HCSMCs); assay: Cell proliferation assay (cell count with hemocytometer) in PDGF-stimulated HCSMCs; assay type: cell-based; settings: for cell number of HCSMCs: 48 hours, n=7
Protocol: (§1) Cell proliferation assays: Cell proliferation assays were performed as previously reported. Briefly, quiescent HCSMCs seeded at a density of 4×10^4/well in 6-well plates were stimulated by 20 ng/mL PDGF in the presence or absence of 10^−7 M TRAM-34, a selective IKCa blocker. Forty eight hours after stimulation, the number of cells was counted with a hemocytometer (MARIENFELD, Lauda-Konigshofen Germany). In another set of experiments, a BrdU cell proliferation assay was also performed with quiescent cells in 96-well plates at a density of 1×10^4/well according to the manufacturer's instructions (Colorimetric Cell Proliferation ELISA, Roche, Penzberg Germany). In this study, BrdU (10^−5 M in medium) was applied 24 hours prior to the measurements.

[2] = system: human coronary artery smooth muscle cells (HCSMCs); assay: BrdU cell proliferation assay (DNA synthesis) in HCSMCs; assay type: cell-based
Protocol: as §1

[3] = system: c-fos; assay: Western blot of c-fos expression in HCSMCs; assay type: cell-based, human; settings: PDGF + TRAM-34
Source text: Western blot analysis: Total cell lysates or membrane fractions were harvested and protein samples separated on an electrophoresis gel by SDS-PAGE and then transferred to a PVDF membrane. The gels were stained in Coomassie blue to confirm equal protein loading. Membranes were blocked with 10% nonfat dried milk, blotted with primary antibodies (BKCa α-subunit [Affinity BioReagents], c-fos [Santa Cruz, Inc.] and IKCa) and subsequently probed with a horseradish peroxidase-labeled donkey anti-rabbit antibody (1:5,000˜10,000 [Santa Cruz, Inc.]). The bound antibody was detected by chemiluminescence (ECL Plus, Amersham). The polyclonal primary antibody against human and mouse IKCa was obtained from sera of rabbits immunized using oligopeptides with following amino acids sequences; H-LNASYRSIGALNQVRC-NH2 (S4-5 of human and mouse IKCa).

[4] = system: human coronary artery smooth muscle cells (HCSMCs); assay: Transwell cell migration assay in HCSMCs; assay type: cell-based
Protocol: Cell migration assay: A Cell migration assay was carried out with the Transwell system (Corning, Acton, Mass.) as previously reported. Briefly, cells (3×10^5 cells/mL) were seeded onto the upper chamber of Transwells, and the lower chamber was filled with serum-free medium containing 20 ng/ml PDGF. TRAM-34 (10^−8˜10^−7 M) was added to both chambers. After 8-hour stimulation, migrated cells were fixed and stained with the Diff-Quick Stain (IMEB Inc. Chicago, Ill.) and counted under a microscope.

[5] = system: ApoE knockout mice; assay: Development of atherosclerosis in ApoE knockout mice on high-cholesterol diet (long-term IKCa1 blockade); assay type: in vivo, mouse; settings: ApoE KO mice, long-term TRAM-34
Protocol: Mouse treatment: C57BL/6J male mice (wild type [WT] n=11 and ApoE deficient type [EKO] n=38, The Jackson Laboratory) were used. EKO mice were weaned at 4 weeks of age onto a high-cholesterol diet (1.3% cholesterol; TD 96121, Harian/Teklad) and treated with daily subcutaneous injection of TRAM-34 (120 mg/kg/day) or vehicle (peanut oil) for 12 weeks. Littermate war mice were used as the control group in the experiments. Mice were provided diet and water ad libitum and maintained on a 12-hour light/dark cycle. All animal experiments were conducted according to the Guidelines for Animal Experiments at Medical College of Wisconsin.
Histological analysis of atherosclerosis in mouse aortas: Isolation of aortas and quantification of atherosclerosis were performed as previously described. Briefly, aortas (from aortic arch to iliac bifurcation) were opened longitudinally, pinned onto a silicon-coated dish, fixed with 4% paraformaldehyde, and stained in 1.0% (v/w) Sudan III solution (The Science Company, Denver, Colo.). Images were acquired using a digital camera (C-755, Minolta), and the surface area of atherosclerotic lesions was measured as the percentage of total area of the opened aorta using imaging software, MetaMorph (Universal Imaging Corp).

[6] = Body weight, heart weight, blood pressure, heart rate, plasma cholesterol and deaths in treated mice; assay type: in vivo, mouse
Protocol: Mouse treatment: C57BL/6J male mice (wild type [WT] n=11 and ApoE deficient type [EKO] n=38, The Jackson Laboratory) were used. […] Littermate war mice were used as the control group in the experiments. Mice were provided diet and water ad libitum and maintained on a 12-hour light/dark cycle. All animal experiments were conducted according to the Guidelines for Animal Experiments at Medical College of Wisconsin.
Hemodynamic analysis of mice: At 16 weeks of age, mice were anesthetized, and right femoral arteries were cannulated for continuous measurement of arterial pressure and heart rate (pressure transducer; Bioresearch Center, Nagoya, Japan) and recorded continuously by computer for 30 min.
Plasma lipid analysis: Plasma was obtained by centrifugation of blood and stored at −80° C. until each assay was performed. Plasma cholesterol levels were analyzed by General Medical Laboratories (Madison, Wis.).

[7] = molecular target: BKCa (Homo sapiens, UniProt Q12791); assay: Videomicroscopy: vasodilation of human coronary arterioles to BKCa opener; settings: endothelium-denuded human vessels, 3×10^-6 M, n=3
Protocol: (§2) Videomicroscopy: The preparation for videomicroscopy has been previously described. Vasomotor and endothelial function was confirmed by measuring constriction to 50 mM KCl and dilation to acetylcholine (ACh, 10^−4 M, mouse vessels pressurized at 40 mmHg) or to bradykinin (10^−7 mol/L, human vessels at 60 mmHg). Vessels were preconstricted with U46619 (10^−9˜10^−8 M for mouse vessels) or ACh (10^−8˜5×10^−7 M for human vessels) to adjust tone to a level between 30% to 50% of passive diameter. […] In some experiments, endothelial cells (ECs) were denuded.
(§3) Statistical Analysis: All data are expressed as mean±SE. […] Percent dilation was calculated as the percent change from the preconstricted diameter to the passive diameter in Ca^2+-free Krebs containing 10^−4 M papaverine. Percent constriction or basal tone was determined by calculating the percent reduction in the passive diameter. To compare dose-response relationships between treatment groups, a two-way ANOVA supported by a Bonferroni post hoc test was used. Statistical comparisons of maximal percent vasodilation and basal tone under different treatments were performed by paired Student's t test. […] Statistical significance was defined as a value of P<0.05.

[8] = molecular target: BKCa (Mus musculus, UniProt Q08460); assay: Videomicroscopy: vasodilation of mouse carotid artery segments to BKCa opener; settings: endothelium-denuded carotid artery segments
Protocol: as §2, §3

[9] = system: IKCa mRNA; assay: Real-time RT-PCR of IKCa mRNA in HCSMCs; assay type: cell-based, human; settings: PDGF 20 ng/ml, at 6 h, n=5
Source text: (sense) and [NT] (antisense); for [NT] (sense) and [NT] (antisense).

[10] = among the groups (WT, ApoE KO vehicle, ApoE KO TRAM-34)
[11] = long-term treatment, anesthetized mice

BKCa (Homo sapiens, UniProt Q12791), sequence (Q12791 whole entry): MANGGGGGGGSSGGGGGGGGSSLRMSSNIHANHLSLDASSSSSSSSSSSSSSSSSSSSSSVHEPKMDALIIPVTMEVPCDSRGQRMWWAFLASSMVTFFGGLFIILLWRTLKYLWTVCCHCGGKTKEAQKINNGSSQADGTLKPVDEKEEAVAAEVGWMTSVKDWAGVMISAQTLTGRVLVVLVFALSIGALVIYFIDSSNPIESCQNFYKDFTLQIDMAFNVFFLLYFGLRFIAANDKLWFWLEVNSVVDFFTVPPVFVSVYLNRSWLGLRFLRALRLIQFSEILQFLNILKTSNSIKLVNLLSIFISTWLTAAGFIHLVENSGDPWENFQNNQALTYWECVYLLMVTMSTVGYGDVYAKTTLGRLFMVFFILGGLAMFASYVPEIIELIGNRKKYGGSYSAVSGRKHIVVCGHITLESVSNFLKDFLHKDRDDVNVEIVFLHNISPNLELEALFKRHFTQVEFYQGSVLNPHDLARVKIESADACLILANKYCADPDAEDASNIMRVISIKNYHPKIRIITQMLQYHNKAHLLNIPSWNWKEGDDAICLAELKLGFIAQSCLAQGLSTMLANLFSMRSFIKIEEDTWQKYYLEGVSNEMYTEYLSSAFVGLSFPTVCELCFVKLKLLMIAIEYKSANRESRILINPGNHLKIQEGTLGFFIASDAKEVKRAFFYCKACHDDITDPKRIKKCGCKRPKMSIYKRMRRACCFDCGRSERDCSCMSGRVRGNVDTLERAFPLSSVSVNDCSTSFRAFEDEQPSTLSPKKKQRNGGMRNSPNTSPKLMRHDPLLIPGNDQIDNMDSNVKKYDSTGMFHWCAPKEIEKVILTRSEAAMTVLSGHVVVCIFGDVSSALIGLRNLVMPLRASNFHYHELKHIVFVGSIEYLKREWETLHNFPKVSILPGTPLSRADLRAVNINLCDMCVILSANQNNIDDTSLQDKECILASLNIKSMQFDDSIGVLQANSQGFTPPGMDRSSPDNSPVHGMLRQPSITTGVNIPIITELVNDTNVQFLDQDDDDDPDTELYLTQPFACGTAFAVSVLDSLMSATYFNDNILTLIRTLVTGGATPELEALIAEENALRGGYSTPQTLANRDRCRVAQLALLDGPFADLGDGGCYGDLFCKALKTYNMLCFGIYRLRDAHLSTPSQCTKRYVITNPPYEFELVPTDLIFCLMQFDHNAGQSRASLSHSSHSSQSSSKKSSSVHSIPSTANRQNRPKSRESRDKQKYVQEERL
BKCa (Homo sapiens, UniProt Q12791), sequence (Q16558 whole entry partner): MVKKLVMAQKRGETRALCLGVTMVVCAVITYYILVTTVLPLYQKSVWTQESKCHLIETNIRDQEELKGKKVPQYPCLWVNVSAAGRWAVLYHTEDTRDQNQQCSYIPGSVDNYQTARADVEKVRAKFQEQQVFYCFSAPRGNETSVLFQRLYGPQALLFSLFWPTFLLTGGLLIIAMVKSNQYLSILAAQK
BKCa (Mus musculus, UniProt Q08460), sequence (Q08460 whole entry): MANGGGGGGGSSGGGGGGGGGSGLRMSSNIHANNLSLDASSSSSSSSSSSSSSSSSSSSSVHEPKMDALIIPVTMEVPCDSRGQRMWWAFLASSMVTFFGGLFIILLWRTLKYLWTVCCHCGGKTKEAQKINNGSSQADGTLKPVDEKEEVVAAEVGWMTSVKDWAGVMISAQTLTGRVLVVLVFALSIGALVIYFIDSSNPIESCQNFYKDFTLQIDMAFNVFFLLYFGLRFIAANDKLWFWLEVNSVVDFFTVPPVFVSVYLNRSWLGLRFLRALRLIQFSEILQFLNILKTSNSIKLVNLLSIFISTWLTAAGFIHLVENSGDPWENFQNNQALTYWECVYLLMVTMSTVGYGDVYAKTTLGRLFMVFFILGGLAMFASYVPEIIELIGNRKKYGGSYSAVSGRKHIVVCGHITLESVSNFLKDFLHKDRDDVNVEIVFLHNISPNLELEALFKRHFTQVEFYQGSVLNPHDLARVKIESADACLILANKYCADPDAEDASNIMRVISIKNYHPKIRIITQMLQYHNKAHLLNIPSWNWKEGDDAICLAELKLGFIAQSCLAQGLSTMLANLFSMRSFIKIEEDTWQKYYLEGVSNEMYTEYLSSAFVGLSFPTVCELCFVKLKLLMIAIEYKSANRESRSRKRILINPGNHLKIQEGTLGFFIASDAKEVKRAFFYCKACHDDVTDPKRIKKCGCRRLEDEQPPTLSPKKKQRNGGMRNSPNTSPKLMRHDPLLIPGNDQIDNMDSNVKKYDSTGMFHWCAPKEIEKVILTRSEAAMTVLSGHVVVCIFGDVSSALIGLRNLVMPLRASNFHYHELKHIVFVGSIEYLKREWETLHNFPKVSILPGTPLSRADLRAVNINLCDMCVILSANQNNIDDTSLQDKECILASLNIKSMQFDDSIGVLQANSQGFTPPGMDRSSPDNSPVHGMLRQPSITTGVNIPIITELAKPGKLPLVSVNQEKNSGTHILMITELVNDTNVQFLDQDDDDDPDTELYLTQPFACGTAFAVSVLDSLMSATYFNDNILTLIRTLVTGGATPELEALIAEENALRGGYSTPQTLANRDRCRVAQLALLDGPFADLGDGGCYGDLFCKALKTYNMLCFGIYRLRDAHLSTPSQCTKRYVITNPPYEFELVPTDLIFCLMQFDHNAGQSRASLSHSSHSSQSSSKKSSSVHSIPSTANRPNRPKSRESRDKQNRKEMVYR
BKCa (Mus musculus, UniProt Q08460), sequence (Q8CAE3 whole entry partner): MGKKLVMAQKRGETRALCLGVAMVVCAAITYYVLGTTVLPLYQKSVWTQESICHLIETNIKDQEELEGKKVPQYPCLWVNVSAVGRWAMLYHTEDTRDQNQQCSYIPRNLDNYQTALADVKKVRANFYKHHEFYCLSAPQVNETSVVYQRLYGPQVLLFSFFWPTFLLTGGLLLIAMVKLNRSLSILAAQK

Clc1ccccc1C(c1ccccc1)(c1ccccc1)n1cccn1 [TRAM-34, 1-[(2-chlorophenyl)diphenylmethyl]-1H-pyrazole]
cell number of HCSMCs ([1]; PDGF + TRAM-34 at 10^-7 M): 1.1±0.1 fold of control
cell viability ([1]; PDGF+TRAM-34 or TRAM-34 alone, HCSMCs): did not affect cell viability
effect on HCSMC proliferation ([1]; in the absence of PDGF): had no effect
DNA synthesis (BrdU incorporation) ([2]; PDGF + TRAM-34, n=26): 2.2±0.2 fold of control
effect on DNA synthesis ([2]; TRAM alone, no PDGF, n=6): had no effect
PDGF-induced up-regulation of c-fos protein [3]: markedly reduced
HCSMC migration ([4]; PDGF + TRAM-34, 8-hour stimulation, n=4): 2392 fold of control
accumulation of macrophages in the plaques [5]: decreased
nitric oxide-mediated component of endothelium-dependent vasodilation [5]: restored
plasma level of MCP-1 [5]: reduced
plasma level of TNF-alpha [5]: reduced
deaths during treatment ([6]; 14-week treatment, unknown reasons, same in vehicle group): One mouse
plasma cholesterol levels ([6]; ApoE KO mice, TRAM-34 vs vehicle): no significant difference
body weight [6, 10]: no significant differences
heart weight [6, 10]: no significant differences
blood pressure [6, 11]: unaltered
heart rate [6, 11]: unaltered

C=C[C@@]1(C)C=C2CC[C@@H]3[C@](C)(CCC[C@@]3(C)C(=O)O)[C@H]2CC1 [pimaric acid]
vasodilation ([7]; CAD subjects): 31±3%
vasodilation ([7]; non-CAD subjects): 56±6%
% max. dilation ([8]; ApoE KO mice): 9±3%
% max. dilation ([8]; WT mice, 10^-5 M): 55±10%

COc1ccc(Cl)cc1C(=O)NCCc1ccc(S(=O)(=O)NC(=O)NC2CCCCC2)cc1 [Glibenclamide, reference compound]
effect on PDGF-induced HCSMC proliferation ([1]; with PDGF, data not shown, n=4): had no effect

platelet-derived growth factor-BB [PDGF]
cell number of HCSMCs ([1]; PDGF alone (20 ng/mL)): 1.6±0.1 fold of control
DNA synthesis (BrdU incorporation) ([2]; PDGF alone, n=26): 2.8±0.3 fold of control
HCSMC migration ([4]; PDGF alone (20 ng/ml), 8-hour stimulation, n=10): 32±4 fold of control
IKCa mRNA expression, max response [9]: 4.2±1.0 fold
